According to patent publication US6218378A, “Anti-tumor agents comprising pyridyl-substituted metal-diphosphine complex” (priority 1994, dated 2001):

Experiments:
tumour models in mice = settings: reference EP0198696; cited from earlier work
[1] = system: 41M, 41M-cisR, SKOV-3, CH1, CH1-cisR; test: growth inhibition of cisplatin-sensitive and -resistant ovarian cancer cell lines (Table 2, FIG. 5); format: cell-based, human
From the text: (§1) The sensitive CH1 cell line was established from a patient with drug-sensitive disease and its resistant variant (CH1-cisR) was generated by prolonged in vitro exposure to cisplatin during which it acquired more efficient DNA repair as described in Kelland et al., 1992, Cancer Research 52 3857-3864. The sensitive 41M cell line was also established from a patient with a sensitive tumor and its resistant variant (41M-cisR) was generated in the same way but acquired decreased uptake across the cell membrane (Kelland et al., 1992, supra). The intrinsically-resistant SKOV-3 ovarian carcinoma cell line has high glutathione levels as described in Mistry et al., 1991, Brit. J. Cancer 64 215-220 and reduced levels of bi-functional cisplatin-DNA lesions as described in McKeage et al., 1994, Brit. J. Cancer 69 1-7. The characteristics of the cell line pairs CH1/CH1 cisR, 41M/41McisR and 41M/SKOV3 are described in Table 3.
The cytotoxicity assay used sulforhodamine B which stains the basic amino acids. Cells (5000 or 2500 for SKOV-3) were seeded into 96 well microtitre plates (Linbro, Flow Laboratories Inc., USA) in 0.1 ml of medium. After an overnight incubation, the metal phosphine compounds were dissolved in 0.9% NaCl or ethanol and diluted with medium, were added at concentrations ranging from 0.005 to 50 μM to quadruplicate wells. After 96 hrs incubation, the medium was removed and cells were fixed in 0.2 ml of cold 10% (w/v) trichloroacetic acid (May & Baker Ltd., Dagenham, England) for 30 mins at 4° C. The plates were washed five times with tap water. Then 0.1 ml of 0.4% (w/v) sulforhodamine B (Sigma Chemical Co., St. Louis, USA) dissolved in 1% acetic acid (Ajax Chemicals, Australia) was added to the wells and left to stand at room temperature for 15 mins. The plates were then washed five times with 1% acetic acid and left to dry overnight. The next morning, 0.1 ml of 10 mM Tris buffer (Sigma Chemical Co., St. Louis, USA) was then added to each plate to solubilise the dye. Absorbance was read at a wavelength of 570 nm using a 96 well plate reader Dynatech MR 5000 plate reader. Absorbance of treatment cells was expressed as a percentage of positive (drug-free) controls. The results were plotted as percentage growth versus drug concentration. The drug concentration resulting in a 50% growth inhibition was termed the IC50. The passage numbers used for the cytotoxicity assay from each cell line were, CH1 passages 50-58, CH1 cis-R passages 77-83, 41M passages 50-63, 41M cisR 81-92 and SKOV-3 passages 106-128.

MM96 = test: cell survival after drug treatment ([methyl-3H]-thymidine); format: cell-based, human
From the text: (§2) In FIGS. 1-4 and Table 1, reference is made to the cell lines HeLa, HeLa-S1a, JAM, CI-80-13S and MM96.
(§3) The origins of the human melanoma cell line MM96 has been described in Whitehead et al., 1973, Pigment Cell 1 383-389. The cell line JAM is described in Ward et al., 1987, Cancer Res. 47 2662-2667. The origin of the ovarian tumour line CI-80-13S has been described in Bertoncello et al., 1985, Aust. J. Exp. Biol. Med. Sci. 63 241-243. The origin of the cervical carcinoma cell line HeLa has been described in Maynard et al., 1986, Cancer Res. 46 5009-5093. The subclone HeLa-S1a was derived by stably transfecting HeLa with PAI-2 cDNA described in Schleuning et al., 1987, Mol. Cell. Biol. 7 4564-4567 in the sense orientation under the control of the cyto-megalovirus (CMV) promoter. The stably infected subclone was isolated following G418 selection and expression of the PAI-2 transgene characterised by immunoblot analysis and quantitated by ELISA. All of these cell lines have been used before for carrying out cell survival assays referred to in FIGS. 1-4. Cells were cultured at 37° in 5% CO2 /air in Roswell Park Memorial Institute medium 1640 containing 5% foetal calf serum, 100 μg/ml streptomycin, 100 IU/ml penicillin, 1 mM pyruvate, 50 μM nicotinamide and 3 mM HEPES.
(§4) Cells were seeded in microtitre plates (lowest number for fastest growing cells: 1000 HeLa, 2000 MM96, […] CI-80-13S cells per 6 mm well in 100 μl), normally but not necessarily allowed to attach overnight, then 5 dilutions of the drug were added to duplicate wells. After an overnight incubation to equilibrate the pH, the lids were quickly taped around the edge to prevent evaporation. The plates were incubated for 5-7 days, until the controls were nearly confluent. Cell growth/morphology was scored at each dose visually (inverted microscope). The medium was then replaced by 50 μl fresh medium containing 2 u/Ci/ml [methyl-3H]-thymidine (5 Ci/mmol; Radiochemical Centre, Amersham, Bucks., U.K.) and incubated for 2-4 hr. The cells were washed with PBS (0.1 M NaCl, 50 mM phosphate, pH 7.2), detached with 100 μl of PBS containing 0.2 mg/ml trypsin and 10 mM EDTA, and washed onto a glass fibre GF/a filter mat with water using a cell harvester. Later, wells were checked under the microscope to ensure complete detachment and washout. Radioactivity was determined in an LKB Beta Plate counter and the results plotted as log % control cpm versus dose. The ID50 (dose required to give 50% survival) was interpolated from this survival curve.

HeLa-S1a = test: as above; format: cell-based, human
From the text: as §2, §3, §4

CI-80-13S = test: as above; format: cell-based, human
From the text: as §2, §3, §4

HeLa = test: as above; format: cell-based, human
From the text: as §2, §3, §4

P388 leukaemia = settings: i.p. P388 leukaemia; Berners-Price et al. 1990; cited from earlier work
human tumour cell lines = test: selectivity of cytotoxicity over all cell lines evaluated (Tables 1 and 2); format: cell-based
From the text: as §3, §4, §1
The cytotoxicity assay used sulforhodamine B which stains the basic amino acids. Cells (5000 or 2500 for SKOV-3) were seeded into 96 well microtitre plates (Linbro, Flow Laboratories Inc., USA) in 0.1 ml of medium. After an overnight incubation, the metal phosphine compounds were dissolved in 0.9% NaCl or ethanol and diluted with medium, were added at concentrations ranging from 0.005 to 50 μM to quadruplicate wells. After 96 hrs incubation, the medium was removed and cells were fixed in 0.2 ml of cold 10% (w/v) trichloroacetic acid (May & Baker Ltd., Dagenham, England) for 30 mins at 4° C. The plates were washed five times with tap water. […]

Structure (SMILES): [Cl-].c1cc([P+]2(c3ccncc3)CC[P+](c3ccncc3)(c3ccncc3)[Au-3]23[P+](c2ccncc2)(c2ccncc2)CC[P+]3(c2ccncc2)c2ccncc2)ccn1 [[Au(d4pype)2]Cl]
- anti-tumour activity (EP0198696) (tumour models in mice): insignificant anti-tumour activity
- selectivity and cytotoxicity in ovarian cancer cell-lines (FIG. 5) [1]: exhibits the greatest selectivity killing only the CH1/CH1 cisR pair
- IC50 (MM96; MM96L, mean ± SD or individual values when n<3, 5-7 days): > 10 µM
- cytotoxicity (FIGS. 1 and 2) (MM96; MM96 melanoma in vitro): inactive
- cytotoxicity (FIGS. 1 and 2) (HeLa-S1a; HeLa-S1a in vitro): selectively cytotoxic
- IC50 (HeLa-S1a; HeLa-S1a, mean ± SD or individual values when n<3, 5-7 days): 0.3 µM
- cytotoxicity (FIGS. 1 and 2) (CI-80-13S; CI-80-13S ovarian in vitro): selectively cytotoxic
- IC50 (CI-80-13S; CI-80-13S, mean ± SD or individual values when n<3, 5-7 days): 0.32 ± 0.15 µM
- cytotoxicity (FIGS. 1 and 2) (HeLa; HeLa cervical carcinoma in vitro): inactive
- IC50 (HeLa; HeLa, mean ± SD or individual values when n<3, 5-7 days): > 10 µM
- activity in mice (P388 leukaemia): inactive
- number of cell lines against which cytotoxic (human tumour cell lines): cytotoxic to only four of the nine cell-lines tested
- degree of selectivity (human tumour cell lines; Tables 1 and 2): the greatest selectivity
